Reference: a melting point compilation (Tetko et al.; mined from patent text by program, amines drawn as free bases though some values may be those of a salt)

| SMILES | melting point [°C] |
| --- | --- |
| CC(=O)C(=NNc1ccc(OC(C)(C)C)cc1)Sc1ccc(Cl)cc1 | 107 to 108 |
| COc1cccc2c1OC(CN1CC=C(c3c[nH]c4ncccc34)CC1)CO2 (centres undefined) | 207 to 210 |
| CCCCc1nc2ccn(Cc3ccc(C(=O)O)cc3)c(=O)c2n1Cc1ccc(-c2ccccc2-c2nnn[nH]2)cc1 | > 300 |
| Fc1cccc2c(NCCc3nc(-c4ccccc4)cs3)ccnc12 | 134 to 135 |
| N#CC(N)=C(N)Sc1ccc(Cl)cc1 | 107 to 108 |
| CCCCNC(=O)[C@@H](C[C@H](O)[C@H](CC1CCCCC1)NC(=O)OC(C)(C)C)C(C)C | 115 to 118 |
| O=C(CCl)Nc1nc2cc3nc(NC(=O)CCl)sc3cc2s1 | 330 |
| [N-]=[N+]=NCC(O)(Cn1cncn1)c1ccc(Cl)cc1Cl (centres undefined) | 117 to 119 |
| NC(=O)C1CN1C(=O)Oc1ccccc1 (centres undefined) | 140 to 142 |
| Nc1ccc(S(=O)(=O)N2C=CC(CCO)Sc3ccccc32)cc1 (centres undefined) | 145 to 148 |
| Oc1cc(C(O)(c2ccccc2)c2ccccc2)c2ccccc2n1 | > 350 |
| Oc1ccc(-n2nc3ccccc3n2)cc1 | 216 to 218 |
| CC(C)c1ccc(-n2c(CC(=O)O)c(C(=O)O)c3cc(Oc4cccc(C(F)(F)F)c4)ccc32)cc1 | 185 to 190 |
| c1ccc2c(CCCc3nccc4ccccc34)nccc2c1 | 96 to 97 |
| CN(SC(C)(C)C(=O)c1ccccc1)C(=O)ON=C1SC(C)(C)C(=O)N1C | 98 to 100 |
| Cc1cc(SCN(O)CSc2cc(C)c(O)c(C(C)(C)C)c2)cc(C(C)(C)C)c1O | 115 to 118 |
| O=C(Nc1ccccn1)[C@H](Cc1ccccc1)C[C@@H](Cc1ccccc1)C(=O)N[C@@H](CSCc1ccccc1)C(=O)O | 75 to 80 |
| COc1cc(OCc2ccccn2)ccc1/C=C/c1cc(/C=C/c2ccc3ccn(C)c3c2)[nH]n1 | 172 to 174 |

Results, then the compound that gave them:

| melting point [°C] | SMILES |
| --- | --- |
| 97 to 98 | CC1(C)NCCc2c1oc1cc(I)ccc21 |
| 87 to 90 | CC(C)N1CCN(c2ccc([N+](=O)[O-])cc2)C(=O)C1 |
| 124 | CNC(=S)C1(c2ccc3ccccc3n2)CCCS1 (centres undefined) |
| 191 to 192 | COCc1c[nH]c(-c2ccc(O)cc2)n1 |
| 172 to 174 | COCC1CCCN1Cc1ccc2cc(NC(=O)c3ccc(-c4ccc(Cl)cc4)cc3)ccc2n1 (centres undefined) |
| 191 | CCOc1cc(C)ccc1C1CCN(CCCCNC(=O)c2ccc(-c3ccc(C(F)(F)F)cc3)cc2)CC1 |
| 190 to 194 | N=C(Nc1ccc2c(c1)CN1CCOCC1C2)c1cccs1 (centres undefined) |
| 81 to 82 | O=C(O)C(O)c1ccc(Cc2ccccc2)s1 (centres undefined) |
| 113 to 117 | COc1cc(CCCCCCC2OC(=O)NC2=O)ccc1OCc1nc(-c2ccccc2)oc1C (centres undefined) |
| 192 to 195 | NC(=O)C(CCc1cc(Cl)ccc1N1CCCCC1)c1ccc(C(=O)O)cc1 (centres undefined) |
| 178 to 179 | CC#CC1(C2CC2)OC(=O)Nc2ccc(-c3cccc(Cl)c3)cc21 (centres undefined) |
| 285 to 287 | CC1=NCN2C1=Cc1cncnc1-c1cccc(C(=O)O)c12 |
| 206 to 207 | COc1ccc(Cl)c2c1NC(=O)C2=[N+]=[N-] |
| 48 to 48.5 | CC(=O)Oc1cc(CCc2ccccc2)cc(OC(C)=O)c1 |
| 136 to 138 | CCCCc1cc(C(O)=S)cc(N)c1Cc1ccccc1 |
| 133 to 135 | CCOC(=O)CCCn1c(=O)[nH]c2ccccc2c1=O |
| 157 to 159 | CCC(OC(C)=O)c1ccc(Cl)c2nc3n(c12)CCCN3c1ncc(Cl)cc1Cl (centres undefined) |
| 122 to 123 | N#Cc1c(Br)c(C(F)(F)F)n(COC(=O)C2CC2)c1-c1ccc(Cl)cc1 |
| 143 to 144 | COc1ccc(-c2ccc(C=O)c3ccoc23)cc1 |
| 190 to 191 | Cc1sc2c(Br)c3ccccc3c(-c3cc(Br)c(O)c(C4CCCC4)c3)c2c1C |
| 128 to 132 | O=c1oc(-c2cccc(OC(F)(F)F)c2)cc(O)c1SCc1ccccc1 |
